Results published in the supplement of paper PMC13380429.

How the values were obtained:
A549-ACE2 [1] = assay: phospholipidosis EC50; higher = less potent phospholipidosis inducer
A549-ACE2 [2] = assay: drug-induced phospholipidosis relative to tamoxifen; higher = more phospholipidosis
[3] = system: A549-ACE2 infected with SARS-CoV-2; assay: cell count relative to DMSO; higher = less toxic; conditions: 24 h
[4] = system: A549-ACE2 infected with SARS-CoV-2; assay: SARS-CoV-2 infection rate relative to DMSO; higher = more infection; conditions: 24 h
Vero E6 [5] = assay: drug sensitivity score (DSS) for viability; higher = more toxic; extreme values may be limits of the assay; conditions: 72 h
Caco-2 [6] = assay: as above; conditions: 72 h
HepG2 [7] = assay: as above; conditions: 72 h
Calu-3 [8] = assay: as above; conditions: 72 h
Vero E6 [9] = assay: cell viability relative to DMSO; higher = less toxic; conditions: 72 h
Caco-2 [10] = assay: as above; conditions: 72 h
HepG2 [11] = assay: as above; conditions: 72 h
Calu-3 [12] = assay: as above; conditions: 72 h
[13] = system: A549-ACE2 infected with SARS-CoV-2; assay: morphology score (similarity to uninfected cells); higher = more like uninfected cells; conditions: 24 h
Vero E6 [14] = assay: relative viability EC50 (midpoint between 100% and the lowest measured viability); higher = less toxic; conditions: 72 h
Caco-2 [15] = assay: as above; conditions: 72 h
Calu-3 [16] = assay: as above; conditions: 72 h
U2OS [17] = assay: drug sensitivity score (DSS) for viability; higher = more toxic; extreme values may be limits of the assay; conditions: 72 h
U2OS [18] = assay: cell viability relative to DMSO; higher = less toxic; conditions: 72 h
HepG2 [19] = assay: relative viability EC50 (midpoint between 100% and the lowest measured viability); higher = less toxic; conditions: 72 h
U2OS [20] = assay: as above; conditions: 72 h

Nc1ccc(C(=O)Nc2cccc(-c3nc(N4CCOCC4)c4oc5ncccc5c4n3)c2)cn1
Conditions | SARS-CoV-2 infection rate [%] | cell count [%] | cell viability [%] | morphology score | phospholipidosis EC50 [µM]
A549-ACE2 [1], 24 h | – | – | – | – | 6.01
A549-ACE2 [1], 48 h | – | – | – | – | 7.56
A549-ACE2 [1], 72 h | – | – | – | – | 4.36
Caco-2 [10], 1 nM | – | – | 95.4 | – | –
Caco-2 [10], 10 nM | – | – | 97 | – | –
Caco-2 [10], 100 nM | – | – | 101 | – | –
Caco-2 [10], 1000 nM | – | – | 87.1 | – | –
Caco-2 [10], 10000 nM | – | – | 80 | – | –
Calu-3 [12], 1 nM | – | – | 101 | – | –
Calu-3 [12], 10 nM | – | – | 96.1 | – | –
Calu-3 [12], 100 nM | – | – | 100 | – | –
Calu-3 [12], 1000 nM | – | – | 96.5 | – | –
Calu-3 [12], 10000 nM | – | – | 94.8 | – | –
HepG2 [11], 1 nM | – | – | 109 | – | –
HepG2 [11], 10 nM | – | – | 99.6 | – | –
HepG2 [11], 100 nM | – | – | 88.3 | – | –
HepG2 [11], 1000 nM | – | – | 50.5 | – | –
HepG2 [11], 10000 nM | – | – | 61.6 | – | –
Vero E6 [9], 1 nM | – | – | 99.9 | – | –
Vero E6 [9], 10 nM | – | – | 100 | – | –
Vero E6 [9], 100 nM | – | – | 96.4 | – | –
Vero E6 [9], 1000 nM | – | – | 95.9 | – | –
Vero E6 [9], 10000 nM | – | – | 91.9 | – | –
[3], 0.3 µM | – | 100 | – | – | –
[3], 3 µM | – | 102 | – | – | –
[3], 10 µM | – | 101 | – | – | –
[3], 30 µM | – | 78 | – | – | –
[4], 0.3 µM | 90 | – | – | – | –
[4], 3 µM | 47 | – | – | – | –
[4], 10 µM | 63 | – | – | – | –
[4], 30 µM | 110 | – | – | – | –
[13], 0.3 µM | – | – | – | 0.31 | –
[13], 3 µM | – | – | – | 0.45 | –
[13], 10 µM | – | – | – | 0.08 | –
[13], 30 µM | – | – | – | -0.12 | –

drug-induced phospholipidosis [%], A549-ACE2 [2]
Conditions | 0.3 µM | 0.833333 µM | 3.33333 µM | 6.66667 µM | 10 µM | 30 µM
24 h | 4.2 | 16.4 | 72 | 146 | 132 | 202
48 h | 8.45 | 22.8 | 79.6 | 121 | 135 | 188
72 h | 8 | 24.5 | 107 | 162 | – | 231

Conditions | drug sensitivity score | relative viability EC50 [µM]
Caco-2 [6] | 1.8 | –
Caco-2 [15] | – | > 10
Calu-3 [8] | 0 | –
Calu-3 [16] | – | > 10
HepG2 [7] | 10.9 | –
Vero E6 [5] | 0 | –
Vero E6 [14] | – | > 10

CN(C)CCCCC(=O)Nc1ccc(NC(=S)NC(=O)c2ccc(C(C)(C)C)cc2)cc1 [tenovin-6]
Conditions | SARS-CoV-2 infection rate [%] | cell count [%] | cell viability [%] | morphology score | phospholipidosis EC50 [µM]
A549-ACE2 [1], 24 h | – | – | – | – | 2.91
Caco-2 [10], 1 nM | – | – | 92.9 | – | –
Caco-2 [10], 10 nM | – | – | 100 | – | –
Caco-2 [10], 100 nM | – | – | 98.5 | – | –
Caco-2 [10], 1000 nM | – | – | 94.6 | – | –
Caco-2 [10], 10000 nM | – | – | 12.2 | – | –
Calu-3 [12], 1 nM | – | – | 91.1 | – | –
Calu-3 [12], 10 nM | – | – | 107 | – | –
Calu-3 [12], 100 nM | – | – | 101 | – | –
Calu-3 [12], 1000 nM | – | – | 95.1 | – | –
Calu-3 [12], 10000 nM | – | – | 4.2 | – | –
HepG2 [11], 1 nM | – | – | 107 | – | –
HepG2 [11], 10 nM | – | – | 101 | – | –
HepG2 [11], 100 nM | – | – | 110 | – | –
HepG2 [11], 1000 nM | – | – | 88.8 | – | –
HepG2 [11], 10000 nM | – | – | 0.8 | – | –
U2OS [18], 1 nM | – | – | 94 | – | –
U2OS [18], 10 nM | – | – | 97.9 | – | –
U2OS [18], 100 nM | – | – | 96.3 | – | –
U2OS [18], 1000 nM | – | – | 101 | – | –
U2OS [18], 10000 nM | – | – | 5.4 | – | –
Vero E6 [9], 1 nM | – | – | 99.4 | – | –
Vero E6 [9], 10 nM | – | – | 96.7 | – | –
Vero E6 [9], 100 nM | – | – | 104 | – | –
Vero E6 [9], 1000 nM | – | – | 103 | – | –
Vero E6 [9], 10000 nM | – | – | 27.8 | – | –
[3], 0.1 µM | – | 100 | – | – | –
[3], 0.3 µM | – | 102 | – | – | –
[3], 1 µM | – | 98 | – | – | –
[3], 3 µM | – | 113 | – | – | –
[4], 0.1 µM | 91 | – | – | – | –
[4], 0.3 µM | 90 | – | – | – | –
[4], 1 µM | 93 | – | – | – | –
[4], 3 µM | 23 | – | – | – | –
[13], 0.1 µM | – | – | – | 0.22 | –
[13], 0.3 µM | – | – | – | 0.15 | –
[13], 1 µM | – | – | – | -0.08 | –
[13], 3 µM | – | – | – | 0.8 | –

drug-induced phospholipidosis [%], A549-ACE2 [2]
Conditions | 0.3 µM | 0.833333 µM | 3.33333 µM | 6.66667 µM | 10 µM
24 h | -1.65 | -1.47 | 61.4 | 90.4 | 56.6
48 h | 1.91 | 0.33 | 30 | – | –
72 h | 0.744 | -3.12 | 26.8 | – | –

Conditions | drug sensitivity score | relative viability EC50 [µM]
Caco-2 [6] | 5.7 | –
Caco-2 [15] | – | 2.68
Calu-3 [8] | 6 | –
Calu-3 [16] | – | 2.77
HepG2 [7] | 7.3 | –
HepG2 [19] | – | 2.24
U2OS [17] | 5.2 | –
U2OS [20] | – | 3.24
Vero E6 [5] | 3.8 | –
Vero E6 [14] | – | 3.37

CCN(CC)CCCCNc1ncc2cc(-c3cc(OC)cc(OC)c3)c(NC(=O)NC(C)(C)C)nc2n1
Conditions | SARS-CoV-2 infection rate [%] | cell count [%] | cell viability [%] | morphology score | phospholipidosis EC50 [µM]
A549-ACE2 [1], 24 h | – | – | – | – | 3.18
A549-ACE2 [1], 48 h | – | – | – | – | 3.06
Caco-2 [10], 1 nM | – | – | 102 | – | –
Caco-2 [10], 10 nM | – | – | 105 | – | –
Caco-2 [10], 100 nM | – | – | 103 | – | –
Caco-2 [10], 1000 nM | – | – | 103 | – | –
Caco-2 [10], 10000 nM | – | – | 69 | – | –
Calu-3 [12], 1 nM | – | – | 98.9 | – | –
Calu-3 [12], 10 nM | – | – | 98.9 | – | –
Calu-3 [12], 100 nM | – | – | 100 | – | –
Calu-3 [12], 1000 nM | – | – | 98.5 | – | –
Calu-3 [12], 10000 nM | – | – | 75.6 | – | –
HepG2 [11], 1 nM | – | – | 91.9 | – | –
HepG2 [11], 10 nM | – | – | 101 | – | –
HepG2 [11], 100 nM | – | – | 87.9 | – | –
HepG2 [11], 1000 nM | – | – | 96.1 | – | –
HepG2 [11], 10000 nM | – | – | 45.5 | – | –
U2OS [18], 1 nM | – | – | 106 | – | –
U2OS [18], 10 nM | – | – | 105 | – | –
U2OS [18], 100 nM | – | – | 100 | – | –
U2OS [18], 1000 nM | – | – | 85.8 | – | –
U2OS [18], 10000 nM | – | – | 41.5 | – | –
Vero E6 [9], 1 nM | – | – | 94.5 | – | –
Vero E6 [9], 10 nM | – | – | 97.1 | – | –
Vero E6 [9], 100 nM | – | – | 100 | – | –
Vero E6 [9], 1000 nM | – | – | 90.1 | – | –
Vero E6 [9], 10000 nM | – | – | 35.9 | – | –
[3], 0.1 µM | – | 96 | – | – | –
[3], 0.3 µM | – | 90 | – | – | –
[3], 1 µM | – | 103 | – | – | –
[3], 3 µM | – | 109 | – | – | –
[4], 0.1 µM | 105 | – | – | – | –
[4], 0.3 µM | 105 | – | – | – | –
[4], 1 µM | 96 | – | – | – | –
[4], 3 µM | 35 | – | – | – | –
[13], 0.1 µM | – | – | – | 0.01 | –
[13], 0.3 µM | – | – | – | -0.12 | –
[13], 1 µM | – | – | – | 0.28 | –
[13], 3 µM | – | – | – | 0.68 | –

drug-induced phospholipidosis [%], A549-ACE2 [2]
Conditions | 0.3 µM | 0.833333 µM | 3.33333 µM | 6.66667 µM | 10 µM | 30 µM
24 h | 4.11 | 13.5 | 106 | 165 | 234 | 84.5
48 h | 4.6 | 12.8 | 151 | 224 | 200 | –
72 h | 6.12 | 13.2 | – | – | 168 | –

Conditions | drug sensitivity score | relative viability EC50 [µM]
Caco-2 [6] | 1.2 | –
Calu-3 [8] | 1.1 | –
Calu-3 [16] | – | > 10
HepG2 [7] | 3.5 | –
HepG2 [19] | – | 2.58
U2OS [17] | 5.4 | –
U2OS [20] | – | 1.58
Vero E6 [5] | 5.2 | –
Vero E6 [14] | – | 1.96
